Data: US10562900B2 (Shanghai Haihe Pharmaceutical Co., Ltd., priority 2014, dated 2020)

Legend:
FGFR3 = FGFR3 (Homo sapiens (Human), UniProt P22607); assay: FGFR3 kinase activity at the molecular level (ELISA, Poly(Glu,Tyr) 4:1 substrate); assay type: biochemical; conditions: kinase domain recombinant protein, 5 μM ATP
Experimental: (§1) 100 μL/well of 2 mg/mL OPD developing solution (diluted with 0.1M citric acid-sodium citrate buffer containing 0.03% H2O2 (pH=5.4)), and reacted in dark for 1-10 minutes at 25° C.

FGFR2 = FGFR2 (Homo sapiens (Human), UniProt P21802); assay: FGFR2 kinase activity at the molecular level (ELISA, Poly(Glu,Tyr) 4:1 substrate); assay type: biochemical; conditions: kinase domain recombinant protein, 5 μM ATP
Experimental: as §1

[1] = test system: acute myelogenous leukemia cell strain KG1; assay: Growth inhibition of FGFR1-dependent KG1 cells (CCK-8); assay type: cell-based; conditions: Homo sapiens, KG-1, 72 h treatment
Experimental: The growth inhibition of the acute myelogenous leukemia cell strain KG1 (FGFR1-dependent tumor cell strain; the FGFR1 fusion protein in the cell was expressed in the cytoplasm; purchased from ATCC cell bank) by the compounds was detected with CCK-8 cell count kit (Dojindo). The specific steps are as follows: KG1 cells in logarithmic growth phase were seeded onto a 96-well culture plate in appropriate density, 90 ul per well. After overnight culture, different concentrations of compounds were added and the treatment continued for 72 h, and solvent control group (negative control) was set. After treatment for 72 h, the effect of the compounds on cell proliferation was observed by CCK-8 cell counting kit (Dojindo). 10 μL of CCK-8 reagent was added to each well. After incubated for 2-4 hours in a 37 □ incubator, read with SpectraMax 190 microplate reader at 450 nm wavelength. The inhibition rate (%) of the compounds on tumor cell growth was calculated using the following formula: Inhibition rate (%)=(OD negative control well-OD administered well)/OD negative control well×100%.

FGFR1 = FGFR1 (Homo sapiens (Human), UniProt P11362); assay: FGFR1 kinase activity at the molecular level (ELISA, Poly(Glu,Tyr) 4:1 substrate); assay type: biochemical; conditions: kinase domain recombinant protein, 5 μM ATP
Experimental: as §1

FGFR3, sequence (P22607 472-761): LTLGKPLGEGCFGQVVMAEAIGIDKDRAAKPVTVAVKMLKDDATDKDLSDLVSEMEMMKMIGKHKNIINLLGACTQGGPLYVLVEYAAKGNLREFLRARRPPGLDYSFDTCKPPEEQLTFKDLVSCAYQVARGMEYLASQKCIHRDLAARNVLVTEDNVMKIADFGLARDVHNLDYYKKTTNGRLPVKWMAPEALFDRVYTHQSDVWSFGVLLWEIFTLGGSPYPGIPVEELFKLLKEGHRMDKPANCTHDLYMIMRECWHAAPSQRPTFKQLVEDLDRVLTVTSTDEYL
FGFR2, sequence (P21802 481-770): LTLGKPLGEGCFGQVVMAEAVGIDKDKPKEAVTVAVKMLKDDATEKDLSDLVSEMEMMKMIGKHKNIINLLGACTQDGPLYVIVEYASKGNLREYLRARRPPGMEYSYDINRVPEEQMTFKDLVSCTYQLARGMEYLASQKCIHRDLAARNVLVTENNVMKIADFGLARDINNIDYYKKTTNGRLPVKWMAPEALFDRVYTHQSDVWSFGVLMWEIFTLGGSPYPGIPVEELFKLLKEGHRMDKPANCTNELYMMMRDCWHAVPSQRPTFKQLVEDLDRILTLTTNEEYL
FGFR1, sequence (P11362 478-767): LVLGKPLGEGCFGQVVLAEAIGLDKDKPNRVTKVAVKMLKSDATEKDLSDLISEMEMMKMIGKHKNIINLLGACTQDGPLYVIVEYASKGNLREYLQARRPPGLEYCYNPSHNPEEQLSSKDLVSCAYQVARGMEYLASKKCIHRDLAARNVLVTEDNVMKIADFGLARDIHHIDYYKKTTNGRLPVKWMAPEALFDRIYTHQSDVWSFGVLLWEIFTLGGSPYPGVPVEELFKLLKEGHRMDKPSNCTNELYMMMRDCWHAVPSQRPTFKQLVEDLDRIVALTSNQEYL

Row | IC50 (FGFR3) | IC50 (FGFR2) | IC50 [1] | IC50 (FGFR1) | SMILES
1 | < 100 nM | < 100 nM | 200 to 1000 nM | < 100 nM | COc1cc(OC)c(Cl)c(-c2ccc3c(NC(=O)c4ccc(CN5CCN(C(C)=O)CC5)cc4)n[nH]c3c2)c1Cl [Example 19, 4-((4-acetyl-1-yl)methyl)-N-(6-(2,6-dichloro-3,5-dimethoxyphenyl)-1H-indazole-3-yl)benzamide]
2 | < 100 nM | < 100 nM | < 200 nM | < 100 nM | COc1cc(OC)c(Cl)c(-c2ccc3c(NC(=O)c4ccc(N5CCN(C)CC5)cc4)n[nH]c3c2)c1Cl [Example 15, N-(6-(2,6-dichloro-3,5-dimethoxyphenyl)-1H-indazole-3-yl)-4-(4-methylpiperazine-1-yl)benzamide]
3 | – | – | < 200 nM | – | COc1cc(OC)c(Cl)c(-c2ccc3c(NC(=O)c4ccc(N5C[C@@H](C)N[C@@H](C)C5)cc4)n[nH]c3c2)c1Cl [Example 14]
4 | < 100 nM | < 100 nM | < 200 nM | < 100 nM | CCN1CCN(c2ccc(C(=O)Nc3n[nH]c4cc(-c5c(Cl)c(OC)cc(OC)c5Cl)ccc34)cc2)CC1 [Example 18, N-(6-(2,6-dichloro-3,5-dimethoxyphenyl)-1H-indazole-3-yl)-4-(4-ethylpiperazine-1-yl)benzamide]
5 | < 100 nM | < 100 nM | – | < 100 nM | COc1cc(OC)c(Cl)c(-c2ccc3c(NC(=O)c4ccc(N5CCN(C)CC5)cc4)n[nH]c3n2)c1Cl [Example 63, N-(6-(2,6-dichloro-3,5-dimethoxyphenyl)-1H-pyrazolo [3,4-b]pyridin-3-yl)-4-(4-methylpiperazine-1-yl)benzamide]
6 | < 100 nM | < 100 nM | 200 to 1000 nM | < 100 nM | COc1cc(OC)c(Cl)c(-c2ccc3c(NC(=O)c4ccc(CN5CCN(C)CC5)cc4)n[nH]c3c2)c1Cl [Example 16, N-(6-(2,6-dichloro-3,5-dimethoxyphenyl)-1H-indazole-3-yl)-4-((4-methylpiperazine-1-yl)methyl)benzamide]
7 | < 100 nM | < 100 nM | 200 to 1000 nM | < 100 nM | COc1cc(OC)c(Cl)c(-c2ccc3c(NC(=O)c4ccc(N5CCOCC5)cc4)n[nH]c3c2)c1Cl [Example 17, N-(6-(2,6-dichloro-3,5-dimethoxyphenyl)-1H-indazole-3-yl)-4-morpholino benzamide]
8 | – | < 100 nM | – | < 100 nM | COc1cc(OC)c(Cl)c(-c2ccc3c(NC(=O)c4ccc(N(C)C)cc4)n[nH]c3c2)c1Cl [Example 35, N-(6-(2,6-dichloro-3,5-dimethoxyphenyl)-1H-indazole-3-yl)-4-(dimethylamino)benzamide]
9 | – | < 100 nM | – | < 100 nM | COc1cc(OC)c(Cl)c(-c2ccc3c(NC(=O)c4ccc(N5CC6(CNC6)C5)cc4)n[nH]c3n2)c1Cl [Example 73, N-(6-(2,6-dichloro-3,5-dimethoxyphenyl)-1H-pyrazolo [3,4-b]pyridin-3-yl)-4-(2,6-diazaspiro [3.3]heptane-2-yl)benzamide]
10 | – | < 100 nM | – | < 100 nM | COc1cc(OC)c(Cl)c(-c2ccc3c(NC(=O)c4ccc(NCCCN(C)C)cc4)n[nH]c3c2)c1Cl [Example 26, N-(6-(2,6-dichloro-3,5-dimethoxyphenyl)-1H-indazole-3-yl)-4-((3(dimethylamino)propyl)amino)benzamide]
